Test results from article PMC10202811 (Nature Medicine, 2023).
Read-outs that look alike come from different tables or passages of the source.

Assay: Plasma pharmacokinetics of lorlatinib at steady state (LC-MS/MS, non-compartmental analysis)
Assay type: in vivo, human
Details: human; for Cmax: read-out: Cmax; for Tmax: read-out: Tmax
Text: Lorlatinib was isolated from human plasma by a liquid-iquid extraction procedure. […] A linear-log trapezoidal method was used [NT] A best-fit method was used to estimate terminal elimination and to extrapolate any plasma concentration versus time profiles to compute [NT].

[1] = in vivo, 115 mg/m2, Cycle 1 Day 1, Cohort B2, 115 mg/m2 per dose
[2] = in vivo, 115 mg/m2, Cycle 1 Day 1, Cohort A1, 115 mg/m2 per dose, individual patients
[3] = in vivo, 115 mg/m2, Cycle 1 Day 1, patient N0773, Cohort B2, 115 mg/m2 per dose, Dose 75
[4] = in vivo, 115 mg/m2, Cycle 1 Day 15, Cohort A1, 115 mg/m2 per dose, individual patients
[5] = in vivo, 115 mg/m2, Cycle 1 Day 15, patient N0773, Cohort B2, 115 mg/m2 per dose, Dose 75
[6] = plasma, oral, 45 mg/m2, Cohort A1, 45 mg/m2 per dose, C1D15, Geometric Mean, N 3
[7] = plasma, oral, 45 mg/m2, Cohort A1, 45 mg/m2 per dose, C1D15, Median, N 3
[8] = plasma, oral, 45 mg/m2, Cycle 1 Day 1, Cohort A1, 45 mg/m2 per dose, individual patients
[9] = plasma, oral, 60 mg/m2, Cohort A1, 60 mg/m2 per dose, C1D15, Median, N 3

Work on C[C@H]1Oc2cc(cnc2N)-c2c(nn(C)c2C#N)CN(C)C(=O)c2ccc(F)cc21 [Lorlatinib, (10R)-7-amino-12-fluoro-2,10,16-trimethyl-15-oxo-10,15,16,17-tetrahydro-2H-8,4-(metheno)pyrazolo[4,3-h][2,5,11]-benzoxadiazacyclotetradecine-3-carbonitrile] yielded an AUC (in vivo, 115 mg/m2, Cycle 1 Day 1, Cohort B2, 115 mg/m2 per dose, read-out: AUCall) of 17.7 µg·h/mL, a Cmax [1] of 2.32 µg/mL and a Tmax [1] of 1 h. For the same compound, the AUC(0-t) [2] was 14.7 µg·h/mL, the MRT last [2] was 8.5 h and the AUC (in vivo, 115 mg/m2, Cycle 1 Day 1, Cohort A1, 115 mg/m2 per dose, individual patients, read-out: AUCall) was 14.7 µg·h/mL. It also gave a Cmax [2] of 1.44 µg/mL, a Tmax [2] of 2 h and an AUC(0-t) [3] of 10.8 µg·h/mL. It also gave an MRT last [3] of 8.24 h, an AUC (in vivo, 115 mg/m2, Cycle 1 Day 1, patient N0773, Cohort B2, 115 mg/m2 per dose, Dose 75, read-out: AUCall) of 10.8 µg·h/mL and a Cmax [3] of 1.66 µg/mL. It also gave an MRT inf (in vivo, 115 mg/m2, Cycle 1 Day 15, Cohort A1, 115 mg/m2 per dose, read-out: MRTINF_obs) of 11.7 h, an MRT inf (in vivo, 115 mg/m2, Cycle 1 Day 15, Cohort A1, 115 mg/m2 per dose, read-out: MRTINF_pred) of 11.7 h and an MRT inf (in vivo, 115 mg/m2, Cycle 1 Day 15, Cohort B2, 115 mg/m2 per dose, read-out: MRTINF_obs) of 13.5 h. The MRT inf (in vivo, 115 mg/m2, Cycle 1 Day 15, Cohort B2, 115 mg/m2 per dose, read-out: MRTINF_pred) was 13.5 h, the Tmax (in vivo, 115 mg/m2, Cycle 1 Day 15, Cohort B2, 115 mg/m2 per dose) was 1 h and the AUC(0-t) [4] was 8.21 µg·h/mL. The AUC(0-inf) (in vivo, 115 mg/m2, Cycle 1 Day 15, Cohort A1, 115 mg/m2 per dose, individual patients, read-out: AUCINF_obs) was 10.8 µg·h/mL, the AUC(0-inf) (in vivo, 115 mg/m2, Cycle 1 Day 15, Cohort A1, 115 mg/m2 per dose, individual patients, read-out: AUCINF_pred) was 10.7 µg·h/mL and the AUC (in vivo, 115 mg/m2, Cycle 1 Day 15, Cohort A1, 115 mg/m2 per dose, individual patients, read-out: AUC_TAU) was 8.21 µg·h/mL. The AUC (in vivo, 115 mg/m2, Cycle 1 Day 15, Cohort A1, 115 mg/m2 per dose, individual patients, read-out: AUCall) was 8.21 µg·h/mL, the Cmax [4] was 1.35 µg/mL and the MRT inf (in vivo, 115 mg/m2, Cycle 1 Day 15, Cohort A1, 115 mg/m2 per dose, individual patients, read-out: MRTINF_obs) was 15.8 h. It also gave an MRT inf (in vivo, 115 mg/m2, Cycle 1 Day 15, Cohort A1, 115 mg/m2 per dose, individual patients, read-out: MRTINF_pred) of 15.7 h, an AUC(0-t) [5] of 5.37 µg·h/mL and an AUC(0-inf) (in vivo, 115 mg/m2, Cycle 1 Day 15, patient N0773, Cohort B2, 115 mg/m2 per dose, Dose 75, read-out: AUCINF_obs) of 6.99 µg·h/mL. It also gave an AUC(0-inf) (in vivo, 115 mg/m2, Cycle 1 Day 15, patient N0773, Cohort B2, 115 mg/m2 per dose, Dose 75, read-out: AUCINF_pred) of 6.86 µg·h/mL, an AUC (in vivo, 115 mg/m2, Cycle 1 Day 15, patient N0773, Cohort B2, 115 mg/m2 per dose, Dose 75, read-out: AUC_TAU) of 6.95 µg·h/mL and an AUC (in vivo, 115 mg/m2, Cycle 1 Day 15, patient N0773, Cohort B2, 115 mg/m2 per dose, Dose 75, read-out: AUCall) of 5.37 µg·h/mL. For the same compound, the Cmax [5] was 1.78 µg/mL, the MRT inf (in vivo, 115 mg/m2, Cycle 1 Day 15, patient N0773, Cohort B2, 115 mg/m2 per dose, Dose 75, read-out: MRTINF_obs) was 4.18 h and the MRT inf (in vivo, 115 mg/m2, Cycle 1 Day 15, patient N0773, Cohort B2, 115 mg/m2 per dose, Dose 75, read-out: MRTINF_pred) was 3.73 h. For the same compound, the AUC (in vivo, 115 mg/m2, steady state, Cohort A1, 115 mg/m^2 QD, (CV), read-out: AUCtau) was 8.64 µg·h/mL, the Cmax (in vivo, 115 mg/m2, steady state, Cohort A1, 115 mg/m^2 QD, (CV)) was 1.21 µg/mL and the Tmax (in vivo, 115 mg/m2, steady state, Cohort A1, 115 mg/m^2 QD) was 1.5 h. For the same compound, the AUC (in vivo, 115 mg/m2, steady state, Cohort B2 (with topotecan/cyclophosphamide), 115 mg/m^2 QD, (CV), read-out: AUCtau) was 7.95 µg·h/mL, the Cmax (in vivo, 115 mg/m2, steady state, Cohort B2 (with topotecan/cyclophosphamide), 115 mg/m^2 QD, (CV)) was 1.46 µg/mL and the Tmax (in vivo, 115 mg/m2, steady state, Cohort B2 (with topotecan/cyclophosphamide), 115 mg/m^2 QD) was 1 h. The AUC (in vivo, 150 mg per dose, Cycle 1 Day 1, Cohort A2, 150 mg per dose, read-out: AUCall) was 8.36 µg·h/mL, the AUC (in vivo, 150 mg per dose, Cycle 1 Day 15, Cohort A2, 150 mg per dose, read-out: AUCall) was 8.3 µg·h/mL and the AUC (in vivo, 150 mg, Cycle 1 Day 15, Cohort A2, 150 mg per dose, read-out: AUC_TAU) was 8.3 µg·h/mL. For the same compound, the AUC (plasma, oral, 45 mg/m2, Cohort A1, 45 mg/m2 per dose, C1D15, Geometric Mean, N 3, read-out: AUC_TAU) was 2.47 µg·h/mL, the Cmax [6] was 0.355 µg/mL and the Tmax [6] was 1.26 h. For the same compound, the AUC (plasma, oral, 45 mg/m2, Cohort A1, 45 mg/m2 per dose, C1D15, Median, N 3, read-out: AUC_TAU) was 3.22 µg·h/mL, the Cmax [7] was 0.287 µg/mL and the Tmax [7] was 1 h. The Tmax (plasma, oral, 45 mg/m2, Cohort A1, 45 mg/m2 per dose, C1D15, individual patient) was 1 h, the MRT last [8] was 7.18 h and the Tmax [8] was 1 h. The Tmax (plasma, oral, 45 mg/m2, Cycle 1 Day 15, Cohort A1, 45 mg/m2 per dose, individual patients) was 1 h, the AUC (plasma, oral, 45 mg/m^2, steady state (cycle 1, day 15), Cohort A1, 45 mg/m^2 QD, (CV), read-out: AUCtau) was 2.47 µg·h/mL and the Cmax (plasma, oral, 45 mg/m^2, steady state (cycle 1, day 15), Cohort A1, 45 mg/m^2 QD, (CV)) was 0.354 µg/mL. The Tmax (plasma, oral, 45 mg/m^2, steady state (cycle 1, day 15), Cohort A1, 45 mg/m^2 QD) was 1 h, the AUC (plasma, oral, 60 mg/m2, Cohort A1, 60 mg/m2 per dose, C1D15, Geometric Mean, N 3, read-out: AUC_TAU) was 3.93 µg·h/mL and the Cmax (plasma, oral, 60 mg/m2, Cohort A1, 60 mg/m2 per dose, C1D15, Geometric Mean, N 3) was 0.492 µg/mL. It also gave an AUC (plasma, oral, 60 mg/m2, Cohort A1, 60 mg/m2 per dose, C1D15, Median, N 3, read-out: AUC_TAU) of 4.14 µg·h/mL, a Cmax [9] of 0.558 µg/mL and a Tmax [9] of 2 h. It also gave an AUC (plasma, oral, 60 mg/m2, Cohort A1, 60 mg/m2 per dose, C1D15, individual patient, read-out: AUC_TAU) of 4.14 µg·h/mL.
